# Measurements from ChEMBL document CHEMBL2021890, “A new class of prolylcarboxypeptidase inhibitors, part 1: discovery and evaluation” (Bioorg Med Chem Lett, 2012).
# pIC50, pKi: −log10 of the molar value.
# How the values were obtained:
# [1] = biological target: T1, Lysosomal Pro-X carboxypeptidase (Mus musculus, UniProt Q7TMR0); assay: Inhibition of mouse PrCP
# T1 sequence (Q7TMR0 whole entry): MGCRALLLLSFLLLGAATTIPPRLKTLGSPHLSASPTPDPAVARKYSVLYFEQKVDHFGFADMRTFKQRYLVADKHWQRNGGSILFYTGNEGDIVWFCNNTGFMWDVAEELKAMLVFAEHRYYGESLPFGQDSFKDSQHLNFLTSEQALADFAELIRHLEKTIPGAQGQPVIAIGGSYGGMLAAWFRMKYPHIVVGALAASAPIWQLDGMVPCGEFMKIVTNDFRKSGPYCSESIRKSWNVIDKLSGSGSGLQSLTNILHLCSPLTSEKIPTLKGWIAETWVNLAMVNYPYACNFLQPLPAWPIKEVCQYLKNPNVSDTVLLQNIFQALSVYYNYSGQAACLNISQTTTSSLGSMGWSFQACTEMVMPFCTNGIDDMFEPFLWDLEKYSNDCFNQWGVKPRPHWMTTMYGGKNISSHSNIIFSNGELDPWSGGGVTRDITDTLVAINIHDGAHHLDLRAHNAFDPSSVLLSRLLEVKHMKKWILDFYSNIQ
# [2] = Plasma protein binding in 10% human plasma assessed as percentage unbound; format: ADME, cell-free
# [3] = Plasma protein binding in 10% mouse plasma assessed as percentage unbound; format: ADME, cell-free
# [4] = Metabolic stability in human liver microsomes after 30 mins by LC/MS analysis; format: ADME, Microsome; settings: read-out: Stability
# [5] = Metabolic stability in mouse liver microsomes after 30 mins by LC/MS analysis; format: ADME, Microsome; settings: read-out: Stability
# [6] = Clearance in mouse at 0.5 mg/kg, iv and 1 mg/kg, po; format: ADME, organism-based; settings: in vivo
# [7] = Volume of distribution in mouse at 0.5 mg/kg, iv and 1 mg/kg, po; format: ADME, organism-based; settings: in vivo
# [8] = Half life in mouse at 0.5 mg/kg, iv and 1 mg/kg, po; format: ADME, organism-based; settings: in vivo
# Mus musculus [9] = assay: Dose normalized AUC in mouse at 1 mg/kg, po; format: ADME, organism-based; design: dose 1 mg/kg, route oral; settings: in vivo
# [10] = Oral bioavailability in mouse at 1 mg/kg; format: ADME, organism-based; settings: in vivo
# Mus musculus [11] = assay: Ex-vivo inhibition of po dosed mouse PrCP in the absence of plasma by FRET analysis; format: functional, organism-based
# Mus musculus [12] = assay: Ex-vivo inhibition of PrCP in heat inactivated 25% plasma of po dosed mouse by FRET analysis; format: functional, organism-based
# Mus musculus [13] = assay: Ex-vivo inhibition of PrCP in heat inactivated 100% plasma of po dosed mouse by FRET analysis; format: functional, organism-based
SMILES,pIC50 [1],fraction unbound [2],fraction unbound [3],remaining at 0.5 h [4],remaining at 0.5 h [5],clearance [6],Vd [7],half-life [8],AUC/dose (Mus musculus [9]),bioavailability [10],pKi (Mus musculus [11]),pKi (Mus musculus [12]),pKi (Mus musculus [13])
O=C([C@@H]1CNC[C@H]1c1ccc(F)cc1F)N1CCC(c2ccnn2-c2ccc(F)c(Cl)c2)CC1,8.43,0.12,0.1,44%,59%,60 mL/min/kg,8 L/kg,1.6 h,0.16 µM·kg·h/mg,27%,8.54,8.11,7.66
Cc1cc(C2CCN(C(=O)[C@@H]3CN(C(C)(C)C)C[C@H]3c3ccc(F)cc3F)CC2)n(-c2ccc(Cl)cc2F)n1,8.70,0.17,0.21,,,51 mL/min/kg,16 L/kg,3.6 h,0.25 µM·kg·h/mg,43%,8.82,8.60,8.26
Cc1cc(C2CCN(C(=O)[C@@H]3CNC[C@H]3c3ccc(F)cc3F)CC2)n(-c2ccc(Cl)c(Cl)c2)n1,7.82,,,,,,,,,,7.71,7.25,6.79
Cc1nc(C2CCN(C(=O)[C@@H]3CNC[C@H]3c3ccc(F)cc3F)CC2)n(-c2ccc(F)c(Cl)c2)n1,7.49,,,49%,57%,,,,,,,,
Cc1nc(C2CCN(C(=O)[C@@H]3CN(C(C)(C)C)C[C@H]3c3ccc(F)cc3F)CC2)n(-c2ccc(F)c(F)c2)n1,7.47,0.7,0.54,57%,47%,,,,,,,,
Cc1cc(C2CCN(C(=O)[C@@H]3CN(C(C)(C)C)C[C@H]3c3ccc(F)cc3F)CC2)n(-c2cc(Cl)ccc2F)n1,8.85,0.14,0.09,34%,37%,,,,,,8.92,8.80,8.55
Cc1cc(C2CCN(C(=O)[C@@H]3CNC[C@H]3c3ccc(F)cc3F)CC2)n(-c2ccc(F)c(Cl)c2)n1,8.10,,,,,,,,,,8.08,7.70,7.26
Cc1cc(C2CCN(C(=O)[C@@H]3CNC[C@H]3c3ccc(F)cc3F)CC2)n(-c2cc(Cl)ccc2Cl)n1,8.36,0.12,0.05,,,173 mL/min/kg,19 L/kg,1.4 h,0.04 µM·kg·h/mg,23%,8.38,8.05,7.64
Cc1cc(C2CCN(C(=O)[C@@H]3CN(C(C)(C)C)C[C@H]3c3ccc(F)cc3F)CC2)n(-c2ccc(F)cc2F)n1,7.92,,,,,63 mL/min/kg,14 L/kg,2.5 h,0.26 µM·kg·h/mg,54%,8.28,8.12,7.84
CC(C)(C)N1C[C@@H](C(=O)N2CCC(c3nnnn3-c3ccc(Cl)cc3)CC2)[C@H](c2ccc(F)cc2F)C1,7.36,0.32,0.42,5%,10%,163 mL/min/kg,17 L/kg,1.8 h,0.01 µM·kg·h/mg,6.4%,,,
Cc1nc(C2CCN(C(=O)[C@@H]3CN(C(C)(C)C)C[C@H]3c3ccc(F)cc3F)CC2)n(-c2ccc(Cl)cc2)n1,7.59,0.25,0.49,35%,46%,96 mL/min/kg,14 L/kg,1.9 h,0.16 µM·kg·h/mg,48%,,,
Cc1nc(C2CCN(C(=O)[C@@H]3CNC[C@H]3c3ccc(F)cc3F)CC2)n(-c2cc(Cl)ccc2Cl)n1,7.52,,,58%,56%,,,,,,,,
Cc1nc(C2CCN(C(=O)[C@@H]3CNC[C@H]3c3ccc(F)cc3F)CC2)n(-c2ccc(Cl)cc2)n1,6.71,0.12,0.07,53%,82%,,,,,,,,
Cc1nc(C2CCN(C(=O)[C@@H]3CNC[C@H]3c3ccc(F)cc3F)CC2)n(-c2ccc(Cl)c(Cl)c2)n1,7.31,,,59%,58%,,,,,,,,
Cc1cc(C2CCN(C(=O)[C@@H]3CN(C(C)(C)C)C[C@H]3c3ccc(F)cc3F)CC2)n(-c2ccc(F)cc2)n1,7.52,,,,,,,,,,,,

# Results, then the compound that gave them:
pIC50 [1],fraction unbound [2],fraction unbound [3],remaining at 0.5 h [4],remaining at 0.5 h [5],clearance [6],Vd [7],half-life [8],AUC/dose (Mus musculus [9]),bioavailability [10],pKi (Mus musculus [11]),pKi (Mus musculus [12]),pKi (Mus musculus [13]),SMILES
8.54,0.04,0.06,1%,18%,80 mL/min/kg,20 L/kg,3.1 h,0.1 µM·kg·h/mg,28%,,,,Cc1cc(C2CCN(C(=O)[C@@H]3CN(C(C)(C)C)C[C@H]3c3ccc(F)cc3F)CC2)n(-c2ccc(Cl)c(C)c2)n1
8.96,0.05,0.04,< 1%,1%,165 mL/min/kg,24 L/kg,2.1 h,0.01 µM·kg·h/mg,5.5%,,,,Cc1cc(C2CCN(C(=O)[C@@H]3CN(C(C)(C)C)C[C@H]3c3ccc(F)cc3F)CC2)n(-c2ccc(C)c(Cl)c2)n1
7.96,0.1,0.19,29%,6%,127 mL/min/kg,20 L/kg,2.1 h,0.03 µM·kg·h/mg,13%,8.52,8.22,7.82,Cc1nc(C2CCN(C(=O)[C@H]3CN(C(C)(C)C)C[C@@H]3c3ccc(F)cc3F)CC2)n(-c2ccc(Cl)c(C)c2)n1
8.32,,,,,,,,,,8.44,8.05,7.60,Cc1cc(C2CCN(C(=O)[C@@H]3CN(C(C)(C)C)C[C@H]3c3ccc(F)cc3F)CC2)n(-c2ccc(Cl)c(F)c2)n1
8.64,,,,,65 mL/min/kg,17 L/kg,3.1 h,0.17 µM·kg·h/mg,37%,,,,Cc1cc(C2CCN(C(=O)[C@@H]3CN(C(C)(C)C)C[C@H]3c3ccc(F)cc3F)CC2)n(-c2ccc(Cl)cc2C)n1
9.00,0.1,0.16,31%,39%,57 mL/min/kg,16 L/kg,3.1 h,0.31 µM·kg·h/mg,61%,8.96,8.64,8.22,Cc1cc(C2CCN(C(=O)[C@@H]3CN(C(C)(C)C)C[C@H]3c3ccc(F)cc3F)CC2)n(-c2ccc(Cl)cc2Cl)n1
6.31,0.11,0.07,6%,36%,111 mL/min/kg,14 L/kg,1.7 h,0.05 µM·kg·h/mg,18%,,,,Cc1cc(-n2nc(C3CCN(C(=O)[C@@H]4CN(C(C)(C)C)C[C@H]4c4ccc(F)cc4F)CC3)nc2C)ccc1Cl
7.89,,,,,,,,,,,,,Cc1cc(C2CCN(C(=O)[C@@H]3CN(C(C)(C)C)C[C@H]3c3ccc(F)cc3F)CC2)n(-c2cccc(Cl)c2)n1
8.46,0.11,0.17,28%,37%,41 mL/min/kg,14 L/kg,3.9 h,0.24 µM·kg·h/mg,29%,,,,Cc1cc(C2CCN(C(=O)[C@@H]3CN(C(C)(C)C)C[C@H]3c3ccc(F)cc3F)CC2)n(-c2ccc(Cl)cc2)n1
9.10,0.16,0.16,38%,43%,68 mL/min/kg,19 L/kg,3.1 h,0.26 µM·kg·h/mg,59%,9.05,8.89,8.60,Cc1cc(C2CCN(C(=O)[C@@H]3CN(C(C)(C)C)C[C@H]3c3ccc(F)cc3F)CC2)n(-c2ccc(F)c(Cl)c2)n1
9.00,0.02,0.019,45%,18%,43 mL/min/kg,11 L/kg,2.7 h,0.26 µM·kg·h/mg,38%,8.77,8.23,7.74,Cc1cc(C2CCN(C(=O)[C@@H]3CN(C(C)(C)C)C[C@H]3c3ccc(F)cc3F)CC2)n(-c2ccc(Cl)c(Cl)c2)n1
8.07,,,,,,,,,,,,,Cc1cc(C2CCN(C(=O)[C@@H]3CN(C(C)(C)C)C[C@H]3c3ccc(F)cc3F)CC2)n(-c2cc(F)ccc2Cl)n1
